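Grown in 96-well plates, cells were treated for 48 hours with each compound at five concentrations. Insufficient inhibition: endpoint recorded as highest concentration tested. The concentration for 50% growth inhibition is given as GI50. TGI: total growth inhibition.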
Legend:
Assay in all cases: DTP human tumour cell line panel, 48 h
ACHN renal = system: ACHN renal
HT29 colon = system: HT29 colon
K-562 leukemia = system: K-562 leukemia
NCI-H226 lung = system: NCI-H226 lung
RXF 393 renal = system: RXF 393 renal
SF-268 CNS = system: SF-268 CNS
SF-295 CNS = system: SF-295 CNS
SF-539 CNS = system: SF-539 CNS
SNB-19 CNS = system: SNB-19 CNS
U251 CNS = system: U251 CNS

Structure (SMILES)	GI50 (ACHN renal)	TGI (ACHN renal)	GI50 (HT29 colon)	TGI (HT29 colon)	GI50 (K-562 leukemia)	TGI (K-562 leukemia)	GI50 (NCI-H226 lung)	TGI (NCI-H226 lung)	GI50 (RXF 393 renal)	TGI (RXF 393 renal)	GI50 (SF-268 CNS)	TGI (SF-268 CNS)	GI50 (SF-295 CNS)	TGI (SF-295 CNS)	GI50 (SF-539 CNS)	TGI (SF-539 CNS)	GI50 (SNB-19 CNS)	TGI (SNB-19 CNS)	GI50 (U251 CNS)	TGI (U251 CNS)
COc1ccc(CN2CCCC(C(=O)c3ccc(C(F)(F)F)cc3)C2)c(O)c1 (stereo not given)	33.6 µM	> 100 µM	14.4 µM	33.9 µM	19.3 µM	93.3 µM	35.5 µM	> 100 µM	16.9 µM	71.9 µM	42.1 µM	> 100 µM	16.8 µM	45.9 µM	18.8 µM	46.1 µM	26.3 µM	> 100 µM	26 µM	> 100 µM
CN(C)S(=O)(=O)Nc1ccccn1		> 100 µM		> 100 µM		> 100 µM		> 100 µM		> 100 µM		> 100 µM		> 100 µM		> 100 µM		> 100 µM		> 100 µM
N#Cc1cnn2ccn(C3OC(COC(=O)c4ccccc4)C(OC(=O)c4ccccc4)C3OC(=O)c3ccccc3)c12 (stereo not given)		> 21.5 µM		> 21.5 µM		> 21.5 µM		> 21.5 µM		> 21.5 µM		> 21.5 µM		> 21.5 µM		> 21.5 µM		> 21.5 µM		> 21.5 µM
c1ccc(-c2nnc(-c3nn(-c4ccccc4)c4nc5ccccc5nc34)o2)cc1		> 100 µM		> 100 µM		> 100 µM		99.5 µM		41.4 µM		> 100 µM		> 100 µM		> 100 µM		> 100 µM		> 100 µM
O=C1CSC(N2CCN(c3cccc(Cl)c3)CC2)=N1	> 100 µM	> 100 µM	46 µM	> 100 µM	> 100 µM	> 100 µM	> 100 µM	> 100 µM	> 100 µM	> 100 µM	> 100 µM	> 100 µM	> 100 µM	> 100 µM	> 100 µM	> 100 µM	> 100 µM	> 100 µM	> 100 µM	> 100 µM
COC(=O)C(CC(=O)c1cc2c(cc1I)OCO2)Cc1cc(OC)c(OC)c(OC)c1I (stereo not given)		> 100 µM		> 100 µM		> 100 µM		> 100 µM		> 100 µM		> 100 µM		> 100 µM		> 100 µM		> 100 µM		> 100 µM
CN(C)c1ccc2c(c1)oc(=O)c1ccccc12		44.6 µM		26.1 µM		26.9 µM		31.9 µM		19.3 µM		22.7 µM		48.2 µM		35.5 µM		28.3 µM		24.3 µM
Cc1c(N2C(=O)/C(=C\c3ccccc3O)N=C2c2ccccc2)c(=O)n(-c2ccccc2)n1C	53.8 µM	> 100 µM	> 100 µM	> 100 µM	> 100 µM	> 100 µM	63.7 µM	> 100 µM	53.8 µM	> 100 µM	29.8 µM	> 100 µM	26.2 µM	78.6 µM	33.5 µM	> 100 µM	54.4 µM	> 100 µM	40.2 µM	> 100 µM
Cn1c(-c2nonc2N)nc2cnccc21	> 25 µM	> 25 µM	> 25 µM	> 25 µM	> 25 µM	> 25 µM	> 25 µM	> 25 µM	> 20.6 µM	> 25 µM	> 25 µM	> 25 µM	> 25 µM	> 25 µM	12.2 µM	> 25 µM	> 25 µM	> 25 µM	> 25 µM	> 25 µM
COC(=O)c1c2c(c(C)[n+]([O-])c1C)C(=O)C=CC2=O	1.9 µM	3.77 µM	2.41 µM	6.54 µM	3.04 µM	36 µM	1.42 µM	2.98 µM	1.42 µM	2.88 µM	2.05 µM	5.52 µM	1.78 µM	3.34 µM	1.8 µM	3.2 µM	1.67 µM	3.31 µM	1.48 µM	2.83 µM
